This is an account of results in article PMC7508466 (Bioorganic & medicinal chemistry letters, 2020).

Molecules are shown by their SMILES. “Also recorded” adds a separate entry of the source.

The target of one data set is human sst2 receptor (Homo sapiens, UniProt P30874). The data set is described as follows: cAMP functional assay in CHO-K1 cells stably expressing human sst2 receptor. The following applies: for sst2 pEC50±SEM: human sst2, CHO-K1 cells, cAMP, average of two or more independent measurements. It is filed as cell-based.
Sequence of human sst2 receptor (P30874 whole entry): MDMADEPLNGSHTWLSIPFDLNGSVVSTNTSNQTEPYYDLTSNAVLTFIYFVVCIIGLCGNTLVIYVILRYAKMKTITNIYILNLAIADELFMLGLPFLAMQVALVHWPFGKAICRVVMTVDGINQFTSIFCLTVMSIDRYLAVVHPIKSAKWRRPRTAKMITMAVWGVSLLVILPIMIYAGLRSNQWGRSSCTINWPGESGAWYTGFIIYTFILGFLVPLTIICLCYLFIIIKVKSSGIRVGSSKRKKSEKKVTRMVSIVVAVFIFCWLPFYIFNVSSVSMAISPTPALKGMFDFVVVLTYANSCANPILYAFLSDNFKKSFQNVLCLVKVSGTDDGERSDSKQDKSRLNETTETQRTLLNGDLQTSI
For a further data set, the target named is CYP450 2C9 (Homo sapiens, UniProt P11712). As to the kind of experiment: in vitro screening CYP450 inhibition assay, 2C9. The class given is in vitro ADME. The following applies: top concentration tested 10 μM.
Sequence of CYP450 2C9 (P11712 whole entry): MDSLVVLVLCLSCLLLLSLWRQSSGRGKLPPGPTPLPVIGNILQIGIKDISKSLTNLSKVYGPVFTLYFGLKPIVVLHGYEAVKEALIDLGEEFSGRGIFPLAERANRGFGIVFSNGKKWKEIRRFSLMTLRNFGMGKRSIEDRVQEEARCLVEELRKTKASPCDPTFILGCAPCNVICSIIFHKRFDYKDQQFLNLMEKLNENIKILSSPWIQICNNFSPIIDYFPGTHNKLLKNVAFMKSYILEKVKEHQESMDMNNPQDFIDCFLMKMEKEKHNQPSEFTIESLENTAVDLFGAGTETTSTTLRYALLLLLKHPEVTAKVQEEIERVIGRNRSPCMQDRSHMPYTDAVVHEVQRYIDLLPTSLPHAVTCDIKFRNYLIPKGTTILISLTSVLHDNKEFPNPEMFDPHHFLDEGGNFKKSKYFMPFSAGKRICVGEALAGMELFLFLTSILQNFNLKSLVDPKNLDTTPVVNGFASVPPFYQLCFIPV
For the next data set, the target named is hERG channel (Homo sapiens, UniProt Q12809). As to the kind of experiment: hERG inhibition binding assay.
Sequence of hERG channel (Q12809 whole entry): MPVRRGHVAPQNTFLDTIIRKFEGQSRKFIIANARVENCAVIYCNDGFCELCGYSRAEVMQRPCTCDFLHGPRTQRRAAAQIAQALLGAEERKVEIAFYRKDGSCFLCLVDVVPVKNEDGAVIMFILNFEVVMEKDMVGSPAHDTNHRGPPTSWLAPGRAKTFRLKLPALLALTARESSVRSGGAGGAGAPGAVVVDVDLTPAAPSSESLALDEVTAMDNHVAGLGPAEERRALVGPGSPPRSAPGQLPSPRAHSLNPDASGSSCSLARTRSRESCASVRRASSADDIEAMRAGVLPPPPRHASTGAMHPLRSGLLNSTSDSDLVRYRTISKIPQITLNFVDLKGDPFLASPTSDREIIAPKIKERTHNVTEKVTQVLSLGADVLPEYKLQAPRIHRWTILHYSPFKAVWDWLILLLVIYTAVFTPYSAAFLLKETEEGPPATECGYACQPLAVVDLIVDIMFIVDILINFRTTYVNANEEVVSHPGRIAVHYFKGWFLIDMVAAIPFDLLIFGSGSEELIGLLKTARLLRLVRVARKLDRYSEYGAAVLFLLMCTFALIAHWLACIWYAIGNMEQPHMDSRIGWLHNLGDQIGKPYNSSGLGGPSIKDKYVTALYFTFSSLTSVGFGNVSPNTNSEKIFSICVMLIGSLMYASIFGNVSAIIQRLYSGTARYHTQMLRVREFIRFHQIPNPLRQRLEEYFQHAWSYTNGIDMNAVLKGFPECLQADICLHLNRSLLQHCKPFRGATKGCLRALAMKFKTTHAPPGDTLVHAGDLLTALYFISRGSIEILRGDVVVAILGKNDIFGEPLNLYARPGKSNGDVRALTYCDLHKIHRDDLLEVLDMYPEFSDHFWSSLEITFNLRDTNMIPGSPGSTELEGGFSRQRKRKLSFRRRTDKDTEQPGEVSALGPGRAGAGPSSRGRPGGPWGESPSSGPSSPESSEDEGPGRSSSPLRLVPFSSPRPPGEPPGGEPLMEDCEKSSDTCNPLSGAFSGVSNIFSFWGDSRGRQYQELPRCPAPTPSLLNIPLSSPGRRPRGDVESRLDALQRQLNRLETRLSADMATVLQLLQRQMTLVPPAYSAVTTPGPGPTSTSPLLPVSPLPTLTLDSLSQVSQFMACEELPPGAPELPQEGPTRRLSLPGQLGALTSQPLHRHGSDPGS
The target in another data set is CYP450 2D6 (Homo sapiens, UniProt P10635). The data set is described as follows: in vitro screening CYP450 inhibition assay, 2D6. It is filed as in vitro ADME. The following applies: top concentration tested 10 μM.
Sequence of CYP450 2D6 (P10635 whole entry): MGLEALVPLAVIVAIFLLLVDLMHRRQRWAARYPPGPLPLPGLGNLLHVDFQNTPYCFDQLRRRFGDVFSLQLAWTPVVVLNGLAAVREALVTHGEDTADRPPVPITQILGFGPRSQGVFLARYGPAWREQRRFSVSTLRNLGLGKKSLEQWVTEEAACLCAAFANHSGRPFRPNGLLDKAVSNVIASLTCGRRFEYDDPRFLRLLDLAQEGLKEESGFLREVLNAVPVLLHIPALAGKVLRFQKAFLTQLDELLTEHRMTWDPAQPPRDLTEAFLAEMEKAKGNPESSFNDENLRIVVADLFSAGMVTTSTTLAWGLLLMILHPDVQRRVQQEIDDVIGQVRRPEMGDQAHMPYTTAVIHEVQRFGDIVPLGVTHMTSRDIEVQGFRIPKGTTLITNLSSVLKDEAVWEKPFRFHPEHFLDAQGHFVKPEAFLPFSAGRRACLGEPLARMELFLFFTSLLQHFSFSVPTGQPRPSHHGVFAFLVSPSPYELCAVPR
Data set [1] is described as follows: oral administration to male SD rats. It is filed as in vivo, rat.
In another data set the target is CYP450 3A4 (Homo sapiens, UniProt P08684). As to the kind of experiment: in vitro screening CYP450 inhibition assay, 3A4. The class given is in vitro ADME. The settings on record: top concentration tested 10 μM.
Sequence of CYP450 3A4 (P08684 whole entry): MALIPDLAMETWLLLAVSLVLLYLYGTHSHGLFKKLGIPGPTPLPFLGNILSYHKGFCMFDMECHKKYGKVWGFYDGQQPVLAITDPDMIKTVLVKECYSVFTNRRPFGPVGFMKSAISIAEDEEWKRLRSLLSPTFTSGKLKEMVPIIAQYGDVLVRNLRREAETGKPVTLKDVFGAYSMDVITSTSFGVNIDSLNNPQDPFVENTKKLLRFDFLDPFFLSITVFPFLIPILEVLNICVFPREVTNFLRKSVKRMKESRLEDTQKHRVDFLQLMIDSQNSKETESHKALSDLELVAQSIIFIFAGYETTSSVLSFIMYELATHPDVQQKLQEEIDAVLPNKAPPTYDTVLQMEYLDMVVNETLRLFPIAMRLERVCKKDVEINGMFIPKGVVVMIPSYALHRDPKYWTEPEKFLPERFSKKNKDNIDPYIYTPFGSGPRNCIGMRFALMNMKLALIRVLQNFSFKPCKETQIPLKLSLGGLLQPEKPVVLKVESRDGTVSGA
For another data set, the target named is CYP450 2C19 (Homo sapiens, UniProt P33261). The data set is described as follows: in vitro screening CYP450 inhibition assay, 2C19. It is filed as in vitro ADME. The settings on record: top concentration tested 10 μM.
Sequence of CYP450 2C19 (P33261 whole entry): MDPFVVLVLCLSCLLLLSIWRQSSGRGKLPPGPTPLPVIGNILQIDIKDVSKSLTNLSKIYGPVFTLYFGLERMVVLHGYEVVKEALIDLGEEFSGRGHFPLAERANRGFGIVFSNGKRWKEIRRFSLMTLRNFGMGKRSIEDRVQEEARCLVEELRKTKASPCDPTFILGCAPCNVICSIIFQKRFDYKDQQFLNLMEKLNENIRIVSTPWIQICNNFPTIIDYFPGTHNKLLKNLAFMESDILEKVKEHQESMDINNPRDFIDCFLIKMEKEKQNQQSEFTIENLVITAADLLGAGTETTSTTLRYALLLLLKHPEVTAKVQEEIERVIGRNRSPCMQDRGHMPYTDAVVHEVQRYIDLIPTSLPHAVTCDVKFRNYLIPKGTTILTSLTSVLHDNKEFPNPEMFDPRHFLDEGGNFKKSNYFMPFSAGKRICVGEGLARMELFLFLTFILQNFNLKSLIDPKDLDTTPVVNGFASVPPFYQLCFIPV

For the compound `Cc1cc(C)cc(N2C=Nc3cc(Cl)c(-c4cccc(O)c4)cc3C2C(=O)NC[C@H](C)N)c1` (some centres unmarked) [Compound 5], on human sst2 receptor (human sst2, cAMP), the “sst2 agonist activity (in words)” value is “completely suppressed its ability to reduce cAMP production”.

Consider `Cc1cc(C)cc(N2C=Nc3ccc(-c4cccc(O)c4)cc3C2C(=O)N(C)C[C@H](C)N)c1` (some centres unmarked) [Compound 6], for which the “decrease of sst2 agonist activity relative to compound 4” value at human sst2 receptor (human sst2, cAMP) is on record as “more than 10 fold”.

Regarding `CC[C@H](N)CN(C)C(=O)C1c2cc(-c3cccc(O)c3)c(Cl)cc2N=CN1c1cc(C)cc(C)c1` (some centres unmarked) [Compound 7], the “sst2 pEC50±SEM” value on human sst2 receptor came out at 8.0 ± 0.1. The “enhancement of sst2 potency relative to compound 4” value on human sst2 receptor (human sst2, cAMP) is on record as “about 3 fold”.

Turning to `CC[C@H](N)CN(C)C(=O)C1c2cc(-c3cccc(O)c3)c(C)cc2N=CN1c1cc(C)cc(C)c1` (some centres unmarked) [Compound 8], the “sst2 pEC50±SEM” value at human sst2 receptor is 8.4 ± 0.2.

For `Cc1cc(C)cc(N2C=Nc3cc(C)c(-c4cccc(O)c4)cc3C2C(=O)N(C)C[C@@H]2CCCN2)c1` (some centres unmarked) [Compound 9], at human sst2 receptor, the “sst2 pEC50±SEM” value is 8.9 ± 0.1.

Turning to `Cc1cc(Cl)cc(N2C=Nc3cc(C)c(-c4cccc(O)c4)cc3C2C(=O)N(C)C[C@@H]2CCCN2)c1` (some centres unmarked) [Compound 10], on human sst2 receptor, the “sst2 pEC50±SEM” value stood at 9.5 ± 0.2.

Regarding `Cc1cc(F)cc(N2C=Nc3cc(C)c(-c4cccc(O)c4)cc3C2C(=O)N(C)C[C@@H]2CCCN2)c1` (some centres unmarked) [Compound 11], at human sst2 receptor, the “sst2 pEC50±SEM” value is 9.0 ± 0.1.

`Cc1cc(Cl)cc(N2C=Nc3cc(C)c(-c4ccccc4)cc3C2C(=O)N(C)C[C@@H]2CCCN2)c1` (some centres unmarked) [Compound 12]: the “sst2 pEC50±SEM” value at human sst2 receptor was 7.3 ± 0.0. Further, the “sst2 agonist activity (in words)” value at human sst2 receptor (human sst2, cAMP) is on record as “significantly diminished sst2 agonist activity”.

For `Cc1cc(Cl)cc(N2C=Nc3cc(C)c(-c4cccc(C#N)c4)cc3C2C(=O)N(C)C[C@@H]2CCCN2)c1` (some centres unmarked) [Compound 13], on human sst2 receptor, the “sst2 pEC50±SEM” value amounted to 8.3 ± 0.1.

As to `Cc1cc(Cl)cc(N2C=Nc3cc(C)c(-c4cncc(C#N)c4)cc3C2C(=O)N(C)C[C@@H]2CCCN2)c1` (some centres unmarked) [Compound 14], the “sst2 pEC50±SEM” value on human sst2 receptor amounted to 7.9 ± 0.4.

Consider `Cc1cc(Cl)cc(N2C=Nc3cc(C)c(-c4cccc(C(F)(F)F)c4)cc3C2C(=O)N(C)C[C@@H]2CCCN2)c1` (some centres unmarked) [Compound 15], for which the “sst2 pEC50±SEM” value on human sst2 receptor amounted to 7.3 ± 0.0.

Regarding `Cc1cc(Cl)cc(N2C=Nc3cc(C)c(-c4cccc(Cl)c4)cc3C2C(=O)N(C)C[C@@H]2CCCN2)c1` (some centres unmarked) [Compound 16], the “sst2 pEC50±SEM” value on human sst2 receptor was found to be 7.4 ± 0.0.

On to `Cc1cc(Cl)cc(N2C=Nc3cc(C)c(-c4cnn(C)c4)cc3C2C(=O)N(C)C[C@@H]2CCCN2)c1` (some centres unmarked) [Compound 17], for which the “sst2 pEC50±SEM” value at human sst2 receptor came out at 6.8 ± 0.1. Also, the “sst2 agonist activity (in words)” value on human sst2 receptor (human sst2, cAMP) is listed as “substantially reduced potency”.

For `Cc1cc(Cl)cc(N2C=Nc3cc(C)c(-c4cc(F)cc(F)c4)cc3C2C(=O)N(C)C[C@@H]2CCCN2)c1` (some centres unmarked) [Compound 19], the “sst2 pEC50±SEM” value at human sst2 receptor came out at 8.4 ± 0.0.

As to `COc1cc(F)cc(-c2cc3c(cc2C)N=CN(c2cc(C)cc(Cl)c2)C3C(=O)N(C)C[C@@H]2CCCN2)c1` (some centres unmarked) [Compound 20], the “sst2 pEC50±SEM” value at human sst2 receptor is 8.2 ± 0.1.

Take `Cc1cc(Cl)cc(N2C=Nc3cc(C)c(-c4cccc(NS(C)(=O)=O)c4)cc3C2C(=O)N(C)C[C@@H]2CCCN2)c1` (some centres unmarked) [Compound 23]: the “sst2 pEC50±SEM” value on human sst2 receptor is given as 6.9 ± 0.1.

In the case of `Cc1cc(Cl)cc(N2C=Nc3cc(C)c(-c4ccc5[nH]c(=O)[nH]c5c4)cc3C2C(=O)N(C)C[C@@H]2CCCN2)c1` (some centres unmarked) [Compound 24], the “sst2 pEC50±SEM” value on human sst2 receptor was determined as 8.3 ± 0.2.

Regarding `Cc1cc(Cl)cc(N2C=Nc3cc(C)c(-c4cncc(O)c4)cc3C2C(=O)N(C)C[C@@H]2CCCN2)c1` (some centres unmarked) [Compound 25], the “sst2 pEC50±SEM” value at human sst2 receptor came to 8.1 ± 0.1.

With `Cc1cc(Cl)cc(N2C=Nc3cc(C)c(-c4cccc(F)c4O)cc3C2C(=O)N(C)C[C@@H]2CCCN2)c1` (stereo partly drawn) [Compound 28, 3-(3-chloro-5-methylphenyl)-6-(3-fluoro-2-hydroxyphenyl)-N,7-dimethyl-N-{[(2S)-pyrrolidin-2-yl]methyl}-3,4-dihydroquinazoline-4-carboxamide], on CYP450 2C9, the “CYP 2C9 inhibition (in words)” value is on record as “little inhibition; also recorded: no inhibition”. At hERG channel, the “hERG inhibition (in words)” value is “moderate inhibitors; also recorded: weak inhibition”. Further, the “CYP 2D6 inhibition (in words)” value on CYP450 2D6 is listed as “little inhibition; also recorded: no inhibition”. Besides, the “oral exposure (in words)” value in data set [1] was “limited oral exposure”. Further, the “CYP 3A4 inhibition (in words)” value on CYP450 3A4 is “little inhibition; also recorded: no inhibition”. Further, the “CYP 2C19 inhibition (in words)” value on CYP450 2C19 was “little inhibition; also recorded: no inhibition”.

For the compound `Cc1cc(Cl)cc(N2C=Nc3cc(C)c(-c4cc(F)ccc4O)cc3C2C(=O)N(C)C[C@@H]2CCCN2)c1` (some centres unmarked) [Compound 29], at human sst2 receptor, the “sst2 pEC50±SEM” value is given as 8.7 ± 0.0.

With `Cc1cc(Cl)cc(N2C=Nc3cc(C)c(-c4cc(O)cc(C#N)c4)cc3C2C(=O)N(C)C[C@@H]2CCCN2)c1` (some centres unmarked) [Compound 30], the “sst2 pEC50±SEM” value on human sst2 receptor was determined as 9.4 ± 0.1. In addition, the “sst2 agonist activity (in words)” value on human sst2 receptor (human sst2, cAMP) is “tolerable”.

On to `Cc1cc(Cl)cc(N2C=Nc3cc(C)c(-c4cc(F)cc(C(N)=O)c4)cc3C2C(=O)N(C)C[C@@H]2CCCN2)c1` (some centres unmarked) [Compound 31], for which the “hERG inhibition (in words)” value on hERG channel is reported as “moderate inhibitors”. The “sst2 agonist activity (in words)” value on human sst2 receptor (human sst2, cAMP) is given as “as potent as compound 26”.
